# Experiments:
# [1] = target: T1, Brainiac β1-3-N-acetylglucosaminyltransferase (Drosophila melanogaster, UniProt Q24157); experiment: Substrate specificities of Brainiac β1-3-N-acetylglucosaminyltransferase (acceptor panel, microsomal preparations); format: biochemical; conditions: microsomes of pVL-Brainiac infected High Five cells, background of irrelevant construct subtracted, donor UDP-GlcNAc
# T1 construct: The full coding region of Brainiac was prepared by PCR using genomic DNA; made in house; host or cells: High Five insect cells (baculovirus vector pVL1393); microsomal fractions
# T1 sequence (Q24157 1-325): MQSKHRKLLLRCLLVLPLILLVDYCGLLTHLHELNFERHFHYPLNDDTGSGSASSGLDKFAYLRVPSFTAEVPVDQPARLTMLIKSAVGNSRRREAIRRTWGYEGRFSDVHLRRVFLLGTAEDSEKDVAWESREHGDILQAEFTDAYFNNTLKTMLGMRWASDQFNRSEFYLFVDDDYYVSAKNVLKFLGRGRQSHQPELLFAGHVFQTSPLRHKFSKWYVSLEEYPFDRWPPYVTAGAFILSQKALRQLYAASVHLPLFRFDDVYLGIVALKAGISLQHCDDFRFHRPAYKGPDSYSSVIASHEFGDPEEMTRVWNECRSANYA
# Brainiac [2] = target: T2, Brainiac (Drosophila melanogaster, UniProt Q24157); experiment: Initial analysis of Brainiac glycosyltransferase activity with monosaccharides and four UDP sugar nucleotides; format: biochemical; conditions: panel of monosaccharides, donor UDP-GlcNAc, High Five cell microsomes
# T2 construct: The full coding region of Brainiac was prepared by PCR using genomic DNA; made in house; host or cells: High Five insect cells (baculovirus vector pVL1393); microsomal fractions
# T2 sequence (Q24157 1-325): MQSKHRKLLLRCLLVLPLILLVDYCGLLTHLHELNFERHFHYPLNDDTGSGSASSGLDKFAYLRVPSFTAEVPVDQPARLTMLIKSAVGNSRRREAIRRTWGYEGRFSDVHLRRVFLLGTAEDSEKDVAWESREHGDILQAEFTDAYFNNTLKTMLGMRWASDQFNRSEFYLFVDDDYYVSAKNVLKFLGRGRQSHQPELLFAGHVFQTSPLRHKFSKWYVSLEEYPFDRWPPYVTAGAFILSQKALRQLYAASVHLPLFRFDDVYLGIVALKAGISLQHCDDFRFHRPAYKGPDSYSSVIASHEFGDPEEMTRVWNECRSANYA
# Description: (§1) Brainiac-full was cloned into baculovirus vector pVL1393 (Pharmingen) and expressed in High Five cells. Microsomal fractions were prepared as described above for Fringe but with 0.5% N-octylglucoside as Triton X-100 and related detergents destroyed the activity. Initial analysis of activity was done with five monosaccharides and four donor sugar nucleotides as described in FIG. 5 for Fringe. Assays with the acceptors listed in Table 1 were performed as described for Fringe except no additional detergent was added. Reactions with glycolipid substrates were performed in the presence of 0.5% N-octylglucoside in 50 ul reaction volume containing 10 μg glycolipid.
# In the latter case the acceptor sugar was not determined.
# Fringe = target: T3, Fringe (Drosophila melanogaster, UniProt Q24342); experiment: Fringe glycosyltransferase assay, transfer of 14C-labelled UDP-donor sugars onto acceptor sugars; format: biochemical; conditions: for Acceptor for Fringe, in words: microsomal fractions of High Five cells
# T3 construct: made in house; host or cells: High Five insect cells (baculovirus vector pVL1393); solubilised microsomal fractions
# T3 sequence (Q24342 1-412): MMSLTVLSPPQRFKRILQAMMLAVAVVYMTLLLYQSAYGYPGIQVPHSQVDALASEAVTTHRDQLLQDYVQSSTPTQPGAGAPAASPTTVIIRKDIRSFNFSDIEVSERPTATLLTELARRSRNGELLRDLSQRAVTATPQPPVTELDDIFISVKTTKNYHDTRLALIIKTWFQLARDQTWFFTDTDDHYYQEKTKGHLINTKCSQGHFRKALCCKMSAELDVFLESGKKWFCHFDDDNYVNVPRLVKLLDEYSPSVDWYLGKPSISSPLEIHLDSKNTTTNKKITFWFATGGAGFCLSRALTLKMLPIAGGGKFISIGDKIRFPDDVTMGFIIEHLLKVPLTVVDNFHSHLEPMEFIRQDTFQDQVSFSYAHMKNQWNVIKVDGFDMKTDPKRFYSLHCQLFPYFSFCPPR
# Description: Fringe-Myc and Fringe-NNN-myc were cloned into baculovirus vector pVL1393 (Pharmingen) and expressed in High Five™ cells. Microsomal fractions were prepared by hypotonic lysis ultracentrifugation and solubilised 1:2 (vol/vol) in 20 mM Cacodylate pH 6.5, 1% Triton-CF54, 5 MM MnCl2 containing Leupeptin and Aprotinin as described previously (Amado et al., 1998). For glycosyltransferase assays, 5 μl of this suspension were added to a total of 50 μl reaction mixture containing 25 mM Cacodylate pH 6.5, 0.25% Triton-CF54, 5 mM MnCl2, 500 mM free sugar, 100 μM UDP-^14C-sugar (1280-2000 cpm/nmol). Reactions were incubated at 37° C. for 45-60 minutes, followed by Dowex-1 anion exchange chromatography and scintillation counting of 50% of the flow-through.
# To ask whether Fringe has intrinsic glycosyltransferase activity, Fringe-wt and Fring-NNN were produced by baculovirus-infection of insect cells. Microsomal fractions enriched for Golgi membranes were partially solubilized and assayed for the ability to the expressed proteins to catalyze the transfer of ^14C-labelled UDP-donor sugars onto acceptor sugars. A variety of different donor/acceptor combinations were tested (FIG. 5b).
# Enzyme activity was measured by transfer of ^14C-labelled donor sugars (as UDP-conjugates) onto acceptor sugars. In FIG. 5b, average results from two experiments are shown. Donors tested were UDP-Glucose (Glc), UDP-Galactose (Gal), UDP-N-acetyl-Glucosamine (GlcNAc) and N-acetyl-Galactosamine (GalNAc). Acceptors tested were Glucose, Galactose, GlcNAc, GalNAc and Fucose.
# Brainiac [3] = target: T2, Brainiac; experiment: Brainiac activity towards glycosphingolipids; format: biochemical; conditions: 10 μg purified glycolipid, 300 μM UDP-14C-N-acetylglucosamine, FIG. 8
# Description: FIG. 8: Brainiac activity towards glycosphingolipids purified from insect cells. Microsomal fractions (1.5 mg) of insect cells transfected with pVL-brainiac and pVL-fringe were used as the enzyme source. Reactions contained 10 μg of purified glycolipids and 300 μM of UDP-^14C-N-acetylglucosamine (8200 cpm/nmol). Products were purified on C18-silica cartridges, spotted on HPTLC-plates, developed in 60:35:8 (chloroform:methanol:water) and exposed for autoradiography.
# as §1
# Glycolipids were obtained from Sigma or purified from High Five insect cells grown in serum free medium. […]
# human β3GnT2 = target: T4, human β3GnT2 (Homo sapiens, UniProt Q9NY97); experiment: human β3GnT2 activity with glycolipid acceptors; format: biochemical; conditions: not shown
# T4 sequence (Q9NY97 1-397): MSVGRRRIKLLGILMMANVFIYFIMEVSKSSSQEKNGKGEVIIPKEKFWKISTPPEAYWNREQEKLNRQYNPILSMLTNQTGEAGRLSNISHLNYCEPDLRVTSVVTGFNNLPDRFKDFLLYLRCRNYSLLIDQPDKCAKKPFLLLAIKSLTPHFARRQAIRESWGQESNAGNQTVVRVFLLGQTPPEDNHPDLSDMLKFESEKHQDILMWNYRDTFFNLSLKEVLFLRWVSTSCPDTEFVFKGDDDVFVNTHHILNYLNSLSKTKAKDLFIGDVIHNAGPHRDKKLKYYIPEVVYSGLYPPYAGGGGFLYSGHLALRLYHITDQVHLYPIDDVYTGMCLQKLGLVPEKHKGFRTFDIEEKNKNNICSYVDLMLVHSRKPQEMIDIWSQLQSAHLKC
# Source text: It is interesting to note that Brainiac also functions with Lac-Cer, a glycolipid which has never been described from insects. Brainiac is the ancestral gene of a very large homologous β3glycosyltransferase gene family in mammalian cells, and the members of this family with closest sequence similarity to Brainiac is represented by a family of β3GlcNAc-transferases with similar specificity for Lac-Cer (Shiraishi et al., 2001, J. Biol. Chem., 276: 3498-3507.). One of these designated human β3GnT2 was analysed in detail and shown to use Lac-Cer but not Mac-Cer (not shown).
# Notch = target: T5, Notch (Drosophila melanogaster, UniProt P07207); experiment: Delta-AP binding to Notch transfected S2 cells; format: cell-based; conditions: co-expressed with Notch in S2 cells
# T5 construct: expressed in transfected cells; host or cells: Drosophila Schneider S2 cells, transient transfection, pRmHa3
# Description: Cell culture and Binding assays: cDNAs for expression in Schneider S2 cells were cloned into pRmHa3. Cells were transiently transfected by the CaPO4 method using 6-8 μg of DNA per well in 6 well plates. Expression was induced by addition of 0.7 mM CuSO4 for 2 days. Conditioned medium was collected from Notch-AP and Delta-AP transfected cells 2 days after induction. AP activity was adjusted to normalise activity levels of Notch-AP or Delta-AP expressed with or without Fringe. Binding was performed as described in Cheng and Flanagan, 1994. In brief, AP-containing supernatants were supplemented with 0.1% NaN3, and incubated 90 min at room temperature. Cells were washed 5 times in HBSS containing 0.05% BSA and 0.1% azide, and lysed in 10 mM Tris pH 8, 1% Triton-X100. Endogenous AP was inactivated by heat treatment for 10 min 60° C. and the lysates clarified by centrifugation. AP activity was measured in 1M Diethanolamine, 1 mM MgCl2, 5 mM para-nitrophenyl phosphate. Bound AP activity was quantified in 96 well plates using a microplate reader and Micromanager software (BioRad). An additional replicate of each transfection was prepared for immunoblot analysis. Lysates were prepared separately for Immunoblot analysis to allow inclusion of protease inhibitors which are not used in the binding assay. To measure interaction of Delta-AP with transiently transfected S2 cells, bound AP activity was quantified in an enzymatic colour reaction. Cells transfected with empty vector were used as a control. […] AP activity is shown in mOD units/minute in cell extracts (replicate experiments are shown in this figure). In this experiment Fringe stimulated binding by over 50 fold. […] However, the assay allows measurement of Fringe-dependent stimulation of Delta-AP binding.
# [4] = tested on: Notch activation in the wing imaginal disc; experiment: Ectopic expression under patched GAL4 control in wing imaginal disc, Wingless expression; format: in vivo, Drosophila; conditions: expressed under patched GAL4 control
# Source text: (e), (f), (g) Wing imaginal discs labelled to visualise Wingless protein (left panel) and the myc epitope tag (right panel). (e) patched^GAL4/+wing disc. Wingless is expressed in a continuous stripe along the DV boundary. (f) patched^GAL4/UAS-Fringe-GalNT3-myc. Golgi-tethered Fringe-GalNT3-myc expression in the patched^GAL4 stripe is shown in the right-hand panel. The endogenous Wingless stripe is interrupted where the Golgi-tethered Fringe stripe crosses the DV boundary (left panel). At the anterior-posterior compartment boundary the Golgi-tethered Fringe stripe abuts the endogenous Wingless stripe and induces ectopic expression of Wingless in the ventral compartment. This pattern is identical to that reported for ectopic expression of wild-type (secreted) Fringe shown in panel (g) for the Golgi-tethered Fringe D: dorsal compartment. V ventral compartment. Posterior is to the right. […] These effects precisely match those caused by expression of wild-type Fringe (not shown; see Panin et al., 1997; Kim et al., 1995). […] Cells were transfected to express Notch, wild-type Fringe-wt-myc, or mutant Fringe-NNN-myc as indicated. Cells transfected with empty vector were used as a control. Fringe-NNN-Myc has no activity in the binding assay, despite being expressed at higher levels than Fringe-wt-Myc.
# T5 sequence (P07207 53-2703): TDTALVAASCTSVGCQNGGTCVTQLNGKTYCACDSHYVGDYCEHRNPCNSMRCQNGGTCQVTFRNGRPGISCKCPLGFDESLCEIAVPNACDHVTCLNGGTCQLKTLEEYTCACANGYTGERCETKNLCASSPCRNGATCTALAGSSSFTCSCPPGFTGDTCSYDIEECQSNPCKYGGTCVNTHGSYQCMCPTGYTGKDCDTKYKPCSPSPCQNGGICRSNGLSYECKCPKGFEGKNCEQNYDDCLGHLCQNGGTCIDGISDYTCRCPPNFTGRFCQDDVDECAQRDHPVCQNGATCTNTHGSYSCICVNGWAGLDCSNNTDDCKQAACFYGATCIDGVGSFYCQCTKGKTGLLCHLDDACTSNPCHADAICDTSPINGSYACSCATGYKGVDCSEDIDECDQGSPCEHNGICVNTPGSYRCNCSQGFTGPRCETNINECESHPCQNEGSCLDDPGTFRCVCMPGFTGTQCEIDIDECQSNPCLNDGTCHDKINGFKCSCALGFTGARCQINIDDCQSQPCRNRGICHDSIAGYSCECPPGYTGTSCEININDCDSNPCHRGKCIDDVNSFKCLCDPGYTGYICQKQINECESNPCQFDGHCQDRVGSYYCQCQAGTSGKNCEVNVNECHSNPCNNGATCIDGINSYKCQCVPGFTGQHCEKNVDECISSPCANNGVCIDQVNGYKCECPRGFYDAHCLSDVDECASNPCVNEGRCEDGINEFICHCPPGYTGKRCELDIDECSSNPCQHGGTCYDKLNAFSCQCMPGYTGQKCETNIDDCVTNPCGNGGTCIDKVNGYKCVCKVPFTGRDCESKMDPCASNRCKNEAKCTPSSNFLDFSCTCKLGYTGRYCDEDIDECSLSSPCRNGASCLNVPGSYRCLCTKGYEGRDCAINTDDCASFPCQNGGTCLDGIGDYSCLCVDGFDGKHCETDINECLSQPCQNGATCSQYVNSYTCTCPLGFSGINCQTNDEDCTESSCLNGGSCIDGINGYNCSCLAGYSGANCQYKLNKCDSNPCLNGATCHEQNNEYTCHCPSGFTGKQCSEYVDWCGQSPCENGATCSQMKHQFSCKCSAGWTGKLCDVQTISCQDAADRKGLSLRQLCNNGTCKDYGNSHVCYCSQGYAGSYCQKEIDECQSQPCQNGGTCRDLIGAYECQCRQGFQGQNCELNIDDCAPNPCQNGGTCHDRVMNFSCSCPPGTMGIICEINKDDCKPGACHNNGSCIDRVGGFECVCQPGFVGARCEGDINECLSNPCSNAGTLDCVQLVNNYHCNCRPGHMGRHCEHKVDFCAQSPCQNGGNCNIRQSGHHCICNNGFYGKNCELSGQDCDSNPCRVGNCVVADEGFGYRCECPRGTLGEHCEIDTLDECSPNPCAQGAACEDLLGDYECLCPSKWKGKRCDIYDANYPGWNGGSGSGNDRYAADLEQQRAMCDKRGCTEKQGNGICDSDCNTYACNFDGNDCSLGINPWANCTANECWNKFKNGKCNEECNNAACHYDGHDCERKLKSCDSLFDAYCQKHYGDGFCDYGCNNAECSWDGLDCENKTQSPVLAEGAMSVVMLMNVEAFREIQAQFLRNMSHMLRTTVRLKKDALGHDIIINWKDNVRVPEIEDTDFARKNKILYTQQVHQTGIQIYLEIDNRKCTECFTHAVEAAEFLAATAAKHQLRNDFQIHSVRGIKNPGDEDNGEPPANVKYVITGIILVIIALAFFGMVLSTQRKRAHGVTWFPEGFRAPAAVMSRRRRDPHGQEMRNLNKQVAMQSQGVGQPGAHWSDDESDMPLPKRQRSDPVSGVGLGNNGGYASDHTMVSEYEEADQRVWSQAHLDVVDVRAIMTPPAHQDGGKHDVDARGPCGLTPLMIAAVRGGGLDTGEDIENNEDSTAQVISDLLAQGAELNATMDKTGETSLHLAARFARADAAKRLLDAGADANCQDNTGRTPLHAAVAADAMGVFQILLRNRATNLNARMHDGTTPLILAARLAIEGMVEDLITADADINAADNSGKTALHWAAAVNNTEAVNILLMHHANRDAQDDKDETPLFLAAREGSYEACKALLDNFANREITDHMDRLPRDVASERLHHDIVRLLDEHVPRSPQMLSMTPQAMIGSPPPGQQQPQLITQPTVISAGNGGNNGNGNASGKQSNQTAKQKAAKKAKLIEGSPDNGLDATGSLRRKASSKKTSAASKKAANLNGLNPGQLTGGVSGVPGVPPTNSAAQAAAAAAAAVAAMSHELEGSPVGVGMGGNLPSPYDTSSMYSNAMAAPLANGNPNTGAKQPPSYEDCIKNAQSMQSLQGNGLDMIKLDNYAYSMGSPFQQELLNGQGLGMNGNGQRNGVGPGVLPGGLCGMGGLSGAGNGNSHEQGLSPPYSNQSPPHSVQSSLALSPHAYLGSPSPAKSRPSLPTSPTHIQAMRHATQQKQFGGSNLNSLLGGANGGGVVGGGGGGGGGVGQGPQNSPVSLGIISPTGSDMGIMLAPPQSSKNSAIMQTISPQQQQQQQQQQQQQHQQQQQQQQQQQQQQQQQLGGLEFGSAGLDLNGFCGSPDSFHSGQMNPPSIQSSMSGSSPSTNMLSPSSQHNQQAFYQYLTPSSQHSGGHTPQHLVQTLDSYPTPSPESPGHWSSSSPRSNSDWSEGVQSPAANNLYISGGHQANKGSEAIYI
molecule,measurement,setting,value
OC[C@H]1OC(O)[C@@H](O)[C@@H](O)[C@@H]1O (stereo partly drawn) [D-Man],Brainiac activity with substrate,[1]; substrate 2 mM,0.28 nmol/h/mg
same,Brainiac activity with substrate,[1]; substrate 20 mM,1.70 nmol/h/mg
same,"Acceptor for Brainiac, in words (initial analysis)",Brainiac [2],best acceptor
C[C@H](O)[C@@H](O)[C@@H](O)[C@H](O)C=O [Fucose],Glycosyltransferase activity of Fringe-wt microsome lysate over background level observed with Fringe-NNN,"Fringe; donor UDP-N-acetylglucosamine (GlcNAc), average of two experiments, FIG. 5b",18 fold
C[C@@H]1OC(O)[C@@H](O)[C@H](O)[C@@H]1O (stereo partly drawn) [L-Fuc],Brainiac activity with substrate,[1]; substrate 2 mM,0.00 nmol/h/mg
same,Brainiac activity with substrate,[1]; substrate 20 mM,0.05 nmol/h/mg
same,"Acceptor for Brainiac, in words (initial analysis)",Brainiac [2],poor substrate
C[C@@H]1O[C@@H](Oc2ccc([N+](=O)[O-])cc2)[C@@H](O)[C@H](O)[C@@H]1O [L-Fucα1-pNph],"Acceptor for Fringe, in words",Fringe,did not act as acceptors
same,Brainiac activity with substrate,[1]; substrate 2 mM,0.02 nmol/h/mg
same,Brainiac activity with substrate,[1]; substrate 20 mM,0.03 nmol/h/mg
C[C@@H]1O[C@H](Sc2ccc([N+](=O)[O-])cc2)[C@@H](O)[C@H](O)[C@@H]1O [β-L-Fuc-1-thio-p-Nph],"Acceptor for Fringe, in words",Fringe,did not act as acceptors
Galβ1-4Glcβ1-Cer,"Glycolipid substrate for Brainiac, in words",Brainiac [3],served as a substrate
same,"Glycolipid used by human β3GnT2, in words",human β3GnT2,use Lac-Cer
Manβ1-4Glcβ1-Cer,"Glycolipid substrate for Brainiac, in words",Brainiac [3],efficient substrate
same,"Glycolipid used by human β3GnT2, in words",human β3GnT2,not Mac-Cer
"Fringe-NNN: Fringe-myc with amino acids D236, 237 and 238 converted to asparagine residues (protein, UniProt Q24342 1-412, looked up, variant D236N D237N D238N, C-terminal myc tag, Fringe-myc with amino acids D236, 237 and 238 converted to asparagine residues) Fringe glycosyltransferase: MMSLTVLSPPQRFKRILQAMMLAVAVVYMTLLLYQSAYGYPGIQVPHSQVDALASEAVTTHRDQLLQDYVQSSTPTQPGAGAPAASPTTVIIRKDIRSFNFSDIEVSERPTATLLTELARRSRNGELLRDLSQRAVTATPQPPVTELDDIFISVKTTKNYHDTRLALIIKTWFQLARDQTWFFTDTDDHYYQEKTKGHLINTKCSQGHFRKALCCKMSAELDVFLESGKKWFCHFNNNNYVNVPRLVKLLDEYSPSVDWYLGKPSISSPLEIHLDSKNTTTNKKITFWFATGGAGFCLSRALTLKMLPIAGGGKFISIGDKIRFPDDVTMGFIIEHLLKVPLTVVDNFHSHLEPMEFIRQDTFQDQVSFSYAHMKNQWNVIKVDGFDMKTDPKRFYSLHCQLFPYFSFCPPR","Effect on Delta-AP binding, in words",Notch,did not increase Delta-AP binding above background levels
same,"Effect on Delta-AP binding, in words",Notch; listed as Fringe-NNN-Myc,no activity
same,"Effect on Wingless expression / Notch activation in wing disc, in words",[4],did not cause Notch activation in the ventral compartment
